The values below come from article PMC4020785 (PLoS ONE, 2014).

For data set [1], the system named is HIV-1 clone ZM247Fv-1 (subtype C). The data set can be described thus: HIV-1 ZM247Fv-1 (subtype C) infection of MT-4 cells, Cell Titer Blue readout. In kind it is cell-based. As to the method: (§1) Human PMBCs were incubated with 100 U recombinant IL-2 (Sigma-Aldrich) and 5 µg/mL phytohemagglutinin-P (PHA-P) (Difco) for 5 days at 37°C. MT-4 cells (1×10^6) or treated PBMCs (1.2×10^8) were infected with HIV-1 clone NL-4.3 or ZM247Fv-1 (MOI of 0.001) by spinoculation (1200 g at room temperature for 2 h). Uninfected cells were used as negative control and were also subjected to the spinoculation process. After spinoculation, supernatants were discarded and cells were resuspended in 10 mL of R10. Cells from each condition were then added to wells (96-well plate) containing serial dilutions of each ISD. For MT-4 cells, each dilution was done in sextuplicates and, for PBMCs, in triplicates. Cells were also incubated with different concentrations of ZDV as positive control. After 5 days in culture, Cell Titer Blue was added to each well and cells were incubated for additional 24 h. The median effective concentration for each drug is defined as EC50. In parallel with the infectivity assay, the same cell types were treated with different concentrations of drugs to determine their cytotoxicity, following the protocol described above. Drug concentration that results in a 50% decrease in viable cells is defined as the CC50 for each compound. EC50 was calculated according to Spearman-Karber and therapeutic index was defined by the ratio between CC50 and EC50 [55].
All statistical analyses were performed using program GraphPism version 6.0. Titrations for TCID50 infectivity were calculated by the Spearman-Karber method. Dose response curves to ISDs with HIV-1 subtype B and C were done using non-linear regression and were fit to the Hill equation.

Data set [2] in a line: Cytotoxicity (CC50) in human PBMCs. The data set is classed as cell-based. Conditions: human PBMCs activated with IL-2 and PHA-P; Human PBMC, Subtype C (R5). The protocol: Cytotoxicity of ISDs was evaluated in J-Lat (clones 9.2 and 10.6) and PHA-activated human PBMCs. Cells were added to wells in a 96-well plate in the presence of various concentrations of ISDs, PMA or prostratin in sextuplicates for 24 and 72 h. Cell viability was determined using the CellTiter-blue fluorescence Cell Viability Assay (Promega) following the manufacturer's instruction.
as §1

Data set [3] concerns J-Lat (clones 9.2 and 10.6). The data set can be described thus: Cell viability of J-Lat clones 9.2 and 10.6 (CellTiter-blue). The data set is classed as cell-based. Conditions: J-Lat clones 9.2 and 10.6, 48 h. As to the method: Cytotoxicity of ISDs was evaluated in J-Lat (clones 9.2 and 10.6) and PHA-activated human PBMCs. […] Cell viability was determined using the CellTiter-blue fluorescence Cell Viability Assay (Promega) following the manufacturer's instruction.

The subject of data set [4] is HIV-1 p24 in J-Lat clones. The data set can be described thus: HIV-1 p24 production in J-Lat clones (ELISA). The data set is classed as cell-based. Conditions: J-Lat clones, GFP and p24 taken together. As to the method: ACH-2 and J1.1 are clonal cell lines derived from CEM [52] and Jurkat cells, respectively, after infection with HIV-1. U1 cells were derived from the human promonocyte cell line U937 and chronically infected with HIV-1 [54]. Each cell line (1×10^6 cells) was incubated in the presence of 1 µM of diterpenes (ING-A, ING-B, ING-C, prostratin and PMA) or 10 ng/mL TNF-α for 48 h at 37°C. After incubation, cells were centrifuged and supernatants were collected for the quantitation of gag p24 antigen by ELISA, following the protocol described by the manufacturer (Perkin Elmer).
To assess whether the GFP expression levels induced by ISDs in J-Lats led to viral production, all five clones were stimulated with 1 µM of each compound for 48 h and production of HIV-1 p24 was measured in the culture supernatant by ELISA. Levels of p24 were proportional to GFP expression in clones 6.3 and 9.2, whereas levels in clone 8.4 were lower when compared to GFP (Figure 3A).

For data set [5], the system named is latent HIV in CD4+ T cells from virally suppressed patients. The data set can be described thus: HIV pol RNA (RT-qPCR) in CD4+ T cells from HIV+ HAART-treated patients. The data set is classed as cell-based, human. Conditions: CD4+ T cells of five HIV+ HAART-treated patients, 1 µM, 24 h. An excerpt:
Whole blood from five HIV+ patients at the Hospital Universitário Gaffrée e Guinle (Rio de Janeiro, Brazil) was collected for reactivation experiments. All individuals enrolled in the study voluntarily and provided written informed consent. Patients presented undetectable viral load (<50 copies/mL), more than 500 CD4+ T cells/mm^3 and have been HAART-treated for at least 10 months (Table 1). PBMCs where isolated following a Ficoll-Paque Plus protocol (GE Healthcare, UK). CD4+ T cells were selected by magnetic beads as described above, and 10^6 cells were incubated in R10 containing 1 µM of the testing compounds (ING-B, prostratin or PMA). DMSO 1% was used as negative control. The antiretroviral EFV (10 µM) was added to all conditions to prevent viral spread. After 24 h, cells were collected for RNA isolation using the All Prep Qiagen kit (Qiagen), as instructed by the manufacturer.
Total RNA from CD4+ T cells was analyzed by RT-qPCR using primers and probe (Life Technologies) specific for the HIV-pol region, as following: forward primer Pol-F (5'-[…] TTT T-3'), reverse primer Pol-R (5'-[…]-3') and a minor groove binder (MGB) probe Pol-Pb (5'-VIC-ATC CCC CCT TTT CTT T-3'). […]
In general terms: Real-time PCR tracks product formation cycle by cycle.

On the set-up of data set [6]: method as in earlier work. To be noted: rats, oral dosing; ref personal communication from Aurigon Life Science – Tutzing, Germany; cited from earlier work.
Details of data set [7]: method as in earlier work. Conditions: dogs, oral dosing; ref personal communication from Aurigon Life Science – Tutzing, Germany; cited from earlier work.

Like-named read-outs stand apart in the source and are kept apart here.

On to `CCCCCC(=O)O[C@H]1C(C)=C[C@]23C(=O)[C@@H](C=C(CO)[C@@H](O)[C@]12O)[C@H]1[C@@H](C[C@H]3C)C1(C)C` [ING-B, ingenol-3-hexanoate], for which the EC50 in data set [1] (Human immunodeficiency virus 1, MT4) is 25 nM. Further, the “TI (CC50/EC50)” value in data set [1] (MT-4 cells, Subtype C (R5)) was 1120. For the same molecule, the CC50 at 5 days in data set [2] amounted to 40 µM. Besides, the “cell viability / toxicity” value in data set [3] was “lower toxicity when compared to its counterparts”. Also, the “HIV-LTR activation, overall comparison” value in data set [4] is “equivalent levels to PMA and TNF-α”. Also, the “HIV transcription (in words)” value in data set [5] is on record as “levels similar to PMA treatment”. The no-observed-adverse-effect level in data set [6] and in data set [7] was 4 mg/kg/day throughout.

For orientation: EC50 means the concentration that produces a half-maximal response. Read a high EC50 as lower potency in that assay. What is called CC50 is the concentration giving 50% cytotoxicity. A higher CC50 goes with lower toxicity to the cells.
